Test results as given in patent US9023789B2, “Amylin analogs and pharmaceutical compositions thereof” (Novo Nordisk A/S, priority 2012, dated 2015).
Numbered stars: 1 amine (or outer) side, 2 acyl side, 3 side chain; on linkers, the order of the positions; unused ones are H or OH. Bridge positions count the residues as written; N and C are the ends. Side chains are listed from the residue outwards. Peptide text beside a SMILES is read from it. * marks the point of attachment. C20 diacid = O=C(O)CCCCCCCCCCCCCCCCCCC(=O)*; γGlu = O=C(O)[C@H](CCC(=O)[*:2])N[*:1]

What was measured:
[1] = biological target: T1, rat amylin receptor (rat calcitonin receptor + rat RAMP 3) (Rattus norvegicus, UniProt P32214+Q9JJ73); test: ASSAY (VI) binding to the rat amylin receptor; conditions: for IC50: binding to rat amylin receptor, read-out: rAmylin-R bind IC50
T1 construct: expressed in transfected cells; host or cells: BHK tk'ts 13 (transient, FuGENE 6), membranes
T1 sequence (P32214 25-479 isoform P32214-2 limits assumed): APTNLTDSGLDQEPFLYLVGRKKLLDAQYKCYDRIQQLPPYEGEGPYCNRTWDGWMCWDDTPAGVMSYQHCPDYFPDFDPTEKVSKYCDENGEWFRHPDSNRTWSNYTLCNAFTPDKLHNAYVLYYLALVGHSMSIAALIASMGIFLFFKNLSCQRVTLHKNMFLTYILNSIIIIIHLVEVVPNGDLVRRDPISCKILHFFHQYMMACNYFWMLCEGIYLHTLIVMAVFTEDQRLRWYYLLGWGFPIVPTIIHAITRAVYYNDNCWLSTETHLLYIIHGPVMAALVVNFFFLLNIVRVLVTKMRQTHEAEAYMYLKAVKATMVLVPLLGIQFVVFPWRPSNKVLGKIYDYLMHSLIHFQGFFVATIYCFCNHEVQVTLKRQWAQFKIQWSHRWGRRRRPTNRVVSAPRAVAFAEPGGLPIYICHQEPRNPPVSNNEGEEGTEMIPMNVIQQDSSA
T1 sequence (Q9JJ73 23-147 partner): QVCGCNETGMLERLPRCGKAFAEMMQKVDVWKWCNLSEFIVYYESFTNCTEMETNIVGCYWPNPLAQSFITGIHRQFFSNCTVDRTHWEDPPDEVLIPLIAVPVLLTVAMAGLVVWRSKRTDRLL
How it was run: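 This assay measured binding to the rat amylin receptor. BHK tk′ts 13 cells were transiently transfected with the rat calcitonin receptor using FuGENE® 6 (Roche), following the manufacturer's recommendations. About 48 hours after transfection, the cells were harvested and membranes were prepared from them for the binding determination.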

[2] = biological target: T2, human amylin receptor (membranes from Amylin 3(a)/CRE-luc cells) (Homo sapiens, UniProt O60896+P30988); test: ASSAY (V) binding to the human amylin receptor (SPA, 125I-rat amylin);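 note: competition binding of cell membranes (35 ng/µL) mixed with SPA beads in 384-well plates at 40 µL total volume, read by scintillation counting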
T2 construct: expressed in transfected cells
T2 sequence (P30988 25-474): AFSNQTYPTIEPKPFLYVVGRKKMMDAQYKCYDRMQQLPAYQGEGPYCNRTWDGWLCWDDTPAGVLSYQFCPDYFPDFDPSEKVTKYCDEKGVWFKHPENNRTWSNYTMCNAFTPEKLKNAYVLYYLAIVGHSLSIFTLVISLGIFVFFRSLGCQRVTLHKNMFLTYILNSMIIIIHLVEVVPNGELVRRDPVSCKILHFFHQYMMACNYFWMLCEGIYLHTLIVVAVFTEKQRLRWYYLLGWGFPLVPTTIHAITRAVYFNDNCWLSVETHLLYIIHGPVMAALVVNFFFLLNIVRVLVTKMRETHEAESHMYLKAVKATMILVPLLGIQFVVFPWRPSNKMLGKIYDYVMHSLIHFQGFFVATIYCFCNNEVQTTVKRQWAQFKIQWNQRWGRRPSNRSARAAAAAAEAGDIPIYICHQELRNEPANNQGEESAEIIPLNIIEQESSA
T2 sequence (O60896 24-148 partner): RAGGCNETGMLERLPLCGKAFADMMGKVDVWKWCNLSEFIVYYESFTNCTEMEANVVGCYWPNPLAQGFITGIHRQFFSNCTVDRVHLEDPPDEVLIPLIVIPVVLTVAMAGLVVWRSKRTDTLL

[3] = biological target: T3, human amylin 3(a) receptor (human calcitonin receptor + RAMP-3) in BHK570 cells (Homo sapiens, UniProt O60896+P30988); test: ASSAY (II)a functional assay, human amylin receptor (CRE luciferase); format: cell-based
T3 construct: expressed in transfected cells
How it was run: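 Ligand exposure 3 h at 37 °C, 5% CO2 in DMEM with 10% FBS, 10 mM Hepes pH 7.4. cAMP-driven luciferase read by luminescence after 30 min LucLite at room temperature.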

rat calcitonin receptor = biological target: T4, rat calcitonin receptor (Rattus norvegicus, UniProt P32214); test: ASSAY (VIII) binding to the rat calcitonin receptor; conditions: Table 7, read-out: rCTR bind IC50
T4 construct: expressed in transfected cells; host or cells: BHK tk'ts 13 (transient, FuGENE 6), membranes
T4 sequence (P32214 25-479 isoform P32214-2 limits assumed): T1 sequence (P32214 25-479 isoform P32214-2 limits assumed)
How it was run: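 Rat calcitonin receptor is expressed transiently in BHK tk′ts 13 cells cultured in DMEM with 10% FBS. Roughly two days (approximately 48 hours) post-transfection, cells are harvested for membrane preparation.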

[4] = Table 7, rat binding selectivity, rCTR IC50 / rAmylin-R IC50
[5] = Table 5, selectivity, hCTR bind IC50 / hAmylin-R bind IC50
[6] = Table 7, human binding selectivity, included for comparison
[7] = hCTR funct. EC50 / hAmylin-R funct. EC50
[8] = hCTR funct. EC50 divided by hAmylin-R funct. EC50
[9] = hCTR funct. EC50 over hAmylin-R funct. EC50
[10] = human functional selectivity: hCTR funct. EC50 / hAmylin-R funct. EC50

Structure (SMILES): CC[C@H](C)[C@H](NC(=O)[C@H](C)NC(=O)CNC(=O)[C@H](Cc1ccccc1)NC(=O)[C@H](CC(N)=O)NC(=O)[C@@H]1CCCN1C(=O)[C@H](CO)NC(=O)[C@H](CO)NC(=O)[C@H](Cc1c[nH]cn1)NC(=O)[C@H](CCCNC(=N)N)NC(=O)[C@H](CC(C)C)NC(=O)[C@H](Cc1ccccc1)NC(=O)[C@H](CCC(=O)O)NC(=O)[C@H](C)NC(=O)[C@H](CC(C)C)NC(=O)[C@H](CCCNC(=N)N)NC(=O)[C@H](CCC(N)=O)NC(=O)[C@@H](NC(=O)[C@H](C)NC(=O)[C@@H]1CSSC[C@H](NC(=O)[C@@H](N)CCCCNC(=O)CC[C@H](NC(=O)CCCCCCCCCCCCCCCCCCC(=O)O)C(=O)O)C(=O)N[C@@H](CC(N)=O)C(=O)N[C@@H]([C@@H](C)O)C(=O)N[C@@H](C)C(=O)N[C@@H]([C@@H](C)O)C(=O)N1)[C@@H](C)O)C(=O)N1CCC[C@H]1C(=O)N[C@@H](CO)C(=O)N[C@@H](CO)C(=O)N[C@H](C(=O)N[C@@H](CC(N)=O)C(=O)N[C@H](C(=O)NCC(=O)N[C@@H](CO)C(=O)N[C@@H](CC(N)=O)C(=O)N[C@H](C(=O)N1CCC[C@H]1C(N)=O)[C@@H](C)O)C(C)C)[C@@H](C)O [Example 12] (H-K([γGlu-C20 diacid])CNTATCATQRLAEFLRHSSPNFGAIPSSTNVGSNTP-NH2; disulfide 2-7 (inferred); N-terminus assumed)
- Ratio rCT/rAmylin binding [1, 4]: 5.0
- Ratio hCT/hAmylin binding [2, 5]: 2.5
- Ratio hCT/hAmylin binding [2, 6]: 2.5
- Ratio hCT/hAmylin funct. [3, 7]: 1.8
- Ratio hCT/hAmylin funct. [3, 8]: 1.8
- Ratio hCT/hAmylin funct. [3, 9]: 1.8
- Ratio hCT/hAmylin funct. [3, 10]: 1.8
- IC50 (rat calcitonin receptor): 2.71 nM

Structure (SMILES): CC[C@H](C)[C@H](NC(=O)[C@H](C)NC(=O)CNC(=O)[C@H](Cc1ccccc1)NC(=O)[C@H](CC(N)=O)NC(=O)[C@@H]1CCCN1C(=O)[C@H](CO)NC(=O)[C@H](CO)NC(=O)[C@H](Cc1c[nH]cn1)NC(=O)[C@H](CCCNC(=N)N)NC(=O)[C@H](CC(C)C)NC(=O)[C@H](Cc1ccccc1)NC(=O)[C@H](CCC(=O)O)NC(=O)[C@H](C)NC(=O)[C@H](CC(C)C)NC(=O)[C@H](CCCNC(=N)N)NC(=O)[C@H](CCC(N)=O)NC(=O)[C@@H](NC(=O)[C@H](C)NC(=O)[C@@H]1CSSC[C@H](NC(=O)[C@H](CCCCN)NC(=O)CC[C@H](NC(=O)CCCCCCCCCCCCCCCCCCC(=O)O)C(=O)O)C(=O)N[C@@H](CC(N)=O)C(=O)N[C@@H]([C@@H](C)O)C(=O)N[C@@H](C)C(=O)N[C@@H]([C@@H](C)O)C(=O)N1)[C@@H](C)O)C(=O)N1CCC[C@H]1C(=O)N[C@@H](CO)C(=O)N[C@@H](CO)C(=O)N[C@H](C(=O)N[C@@H](CC(N)=O)C(=O)N[C@H](C(=O)NCC(=O)N[C@@H](CO)C(=O)N[C@@H](CCCNC(=N)N)C(=O)N[C@H](C(=O)N[C@@H](Cc1ccc(O)cc1)C(N)=O)[C@@H](C)O)C(C)C)[C@@H](C)O [Example 16] ({C20 diacid-γGlu}-KCNTATCATQRLAEFLRHSSPNFGAIPSSTNVGSRTY-NH2; disulfide 2-7)
- IC50 ([1]; Table 7): 1.21 nM
- Ratio rCT/rAmylin binding [1, 4]: 45.6
- Ratio rCT/rAmylin binding ([1]; Table 7a (preferred compounds), rat binding selectivity, rCTR IC50 / rAmylin-R IC50): 45.6
- Ratio rCT/rAmylin binding ([1]; ratio of rCTR bind IC50 to rAmylin-R bind IC50): 45.6
- Ratio hCT/hAmylin binding [2, 5]: 19.1
- Ratio hCT/hAmylin binding ([2]; Table 5a, selectivity, hCTR bind IC50 / hAmylin-R bind IC50): 19.1
- Ratio hCT/hAmylin binding ([2]; Table 5b, selectivity, hCTR bind IC50 / hAmylin-R bind IC50): 19.1
- Ratio hCT/hAmylin binding [2, 6]: 19.1
- Ratio hCT/hAmylin binding ([2]; Table 7a (preferred compounds), human binding selectivity, included for comparison): 19.1
- Ratio hCT/hAmylin binding ([2]; ratio of human calcitonin receptor binding IC50 to human amylin receptor binding IC50): 19.1
- Ratio hCT/hAmylin funct. [3, 8]: 6.1
- Ratio hCT/hAmylin funct. [3, 9]: 6.1
- Ratio hCT/hAmylin funct. [3, 10]: 6.1
- IC50 (rat calcitonin receptor): 55.2 nM

Structure (SMILES): CC[C@H](C)[C@H](NC(=O)[C@H](C)NC(=O)CNC(=O)[C@H](Cc1ccccc1)NC(=O)[C@H](CC(N)=O)NC(=O)[C@@H]1CCCN1C(=O)[C@H](CO)NC(=O)[C@H](CO)NC(=O)[C@H](Cc1c[nH]cn1)NC(=O)[C@H](CCCNC(=N)N)NC(=O)[C@H](CC(C)C)NC(=O)[C@H](Cc1ccccc1)NC(=O)[C@H](CC(N)=O)NC(=O)[C@H](C)NC(=O)[C@H](CC(C)C)NC(=O)[C@H](CCCNC(=N)N)NC(=O)[C@H](CCC(N)=O)NC(=O)[C@@H](NC(=O)[C@H](C)NC(=O)[C@@H]1CSSC[C@H](NC(=O)[C@@H](N)CCCCNC(=O)COCCOCCNC(=O)CC[C@H](NC(=O)CCCCCCCCCCCCCCCCCCC(=O)O)C(=O)O)C(=O)N[C@@H](CC(N)=O)C(=O)N[C@@H]([C@@H](C)O)C(=O)N[C@@H](C)C(=O)N[C@@H]([C@@H](C)O)C(=O)N1)[C@@H](C)O)C(=O)N1CCC[C@H]1C(=O)N[C@@H](CO)C(=O)N[C@@H](CO)C(=O)N[C@H](C(=O)N[C@@H](CC(N)=O)C(=O)N[C@H](C(=O)NCC(=O)N[C@@H](CO)C(=O)N[C@@H](CCCNC(=N)N)C(=O)N[C@H](C(=O)N[C@@H](Cc1ccc(O)cc1)C(N)=O)[C@@H](C)O)C(C)C)[C@@H](C)O [Example 38]
- IC50 ([1]; Table 7): 0.383 nM
- IC50 (rat calcitonin receptor): 38 nM

Structure (SMILES): CC[C@H](C)[C@H](NC(=O)[C@H](C)NC(=O)CNC(=O)[C@H](Cc1ccccc1)NC(=O)[C@H](CC(N)=O)NC(=O)[C@@H]1CCCN1C(=O)[C@H](CO)NC(=O)[C@H](CO)NC(=O)[C@H](Cc1c[nH]cn1)NC(=O)[C@H](CCCNC(=N)N)NC(=O)[C@H](CC(C)C)NC(=O)[C@H](Cc1ccccc1)NC(=O)[C@H](CCC(=O)O)NC(=O)[C@H](C)NC(=O)[C@H](CC(C)C)NC(=O)[C@H](CCCNC(=N)N)NC(=O)[C@H](CCC(N)=O)NC(=O)[C@@H](NC(=O)[C@H](C)NC(=O)[C@@H]1CSSC[C@H](NC(=O)[C@@H](N)CCCCNC(=O)CC[C@H](NC(=O)CCCCCCCCCCCCCCCCCCC(=O)O)C(=O)O)C(=O)N[C@@H](CC(N)=O)C(=O)N[C@@H]([C@@H](C)O)C(=O)N[C@@H](C)C(=O)N[C@@H]([C@@H](C)O)C(=O)N1)[C@@H](C)O)C(=O)N1CCC[C@H]1C(=O)N[C@@H](CO)C(=O)N[C@@H](CO)C(=O)N[C@H](C(=O)N[C@@H](CC(N)=O)C(=O)N[C@H](C(=O)NCC(=O)N1CCC[C@H]1C(=O)N[C@@H](CC(N)=O)C(=O)N[C@H](C(=O)N1CCC[C@H]1C(N)=O)[C@@H](C)O)C(C)C)[C@@H](C)O [Example 114] (H-K([γGlu-C20 diacid])CNTATCATQRLAEFLRHSSPNFGAIPSSTNVGPNTP-NH2; disulfide 2-7 (inferred); N-terminus assumed)
- Ratio rCT/rAmylin binding [1, 4]: 1.1
- Ratio hCT/hAmylin binding [2, 5]: 0.5
- Ratio hCT/hAmylin binding [2, 6]: 0.5
- Ratio hCT/hAmylin funct. [3, 7]: 0.9
- Ratio hCT/hAmylin funct. [3, 8]: 0.9
- Ratio hCT/hAmylin funct. [3, 9]: 0.9
- Ratio hCT/hAmylin funct. [3, 10]: 0.9
